Assay results published in US20240252488A1 (KOREA RESEARCH INSTITUTE OF CHEMICAL TECHNOLOGY, priority 2020, published 2024).

Tests used:
[1] = molecular target: T1, MLKL (Homo sapiens, UniProt Q8NB16); assay: MLKL degradation assay in HepG2 cell line (western blot); type: cell-based; design: endogenous in cells; host or cells: HepG2 or HaCaT; settings: cell line not given; for Degradation assay (Degradation %) 1 μM: compound 1 μM; for Degradation assay (Degradation %) 10 μM: compound 10 μM
T1 sequence (Q8NB16 1-471): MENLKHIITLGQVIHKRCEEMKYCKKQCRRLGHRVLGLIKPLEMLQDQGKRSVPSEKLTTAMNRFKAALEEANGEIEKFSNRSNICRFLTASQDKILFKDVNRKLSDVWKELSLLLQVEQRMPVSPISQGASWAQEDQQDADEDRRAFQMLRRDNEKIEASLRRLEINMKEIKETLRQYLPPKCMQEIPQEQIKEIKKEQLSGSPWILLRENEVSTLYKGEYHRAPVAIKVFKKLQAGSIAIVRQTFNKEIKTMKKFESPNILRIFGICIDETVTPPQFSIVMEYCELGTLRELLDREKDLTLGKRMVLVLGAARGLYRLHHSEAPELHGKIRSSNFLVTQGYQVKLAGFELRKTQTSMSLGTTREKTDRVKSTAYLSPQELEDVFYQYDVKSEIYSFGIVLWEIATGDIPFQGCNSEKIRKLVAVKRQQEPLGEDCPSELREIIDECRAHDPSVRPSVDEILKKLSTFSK
Method in brief: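 After treating HepG2 with test compounds (final 1 μM or 10 μM) for 20-24 h, we lysed cells, equalized protein by BCA and probed MLKL by overnight primary antibody at 4 °C followed by chemiluminescent detection.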

[2] = tested on: FADD−/− Jurkat cells; assay: Necroptosis inhibition assay, TNF-α-induced necroptosis (CellTiter-Glo 2.0); type: cell-based, human; settings: TNF-α 15 ng/mL; for Necroptosis inhibition assay (Rescue %) 1 μM: compound 1 μM; for Necroptosis inhibition assay (Rescue %) 10 μM: compound 10 μM
Method in brief: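 Necroptosis was triggered by TNF-α at 15 ng/mL final following 30 minutes of compound exposure (0.1, 1 or 10 μM final). Incubation ran 20 to 24 hours at 37° C under 5% CO2; cell ATP was then quantified by luminescence.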

[3] = molecular target: T1, MLKL; assay: Measurement of binding affinity with MLKL receptor (competitive binding assay, Kd); design: made in house; host or cells: HEK 293 cell line (T7 phage in E. coli BL21-derived host is also described)
Method in brief: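 Competitive displacement of MLKL, expressed in HEK 293 cells and DNA-tagged for qPCR, from immobilized ligand on biotin-blocked beads. Compounds were added from 111× DMSO stocks (final DMSO 0.9%). Kinase left in the eluates was quantified by qPCR to give Kd.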

Degradation assay (Degradation %) 1 μM [1] [%]	Degradation assay (Degradation %) 10 μM [1] [%]	Kd [3] [nM]	SMILES	Necroptosis inhibition assay (Rescue %) 1 μM [2] [%]	Necroptosis inhibition assay (Rescue %) 10 μM [2] [%]	Necroptosis inhibition assay (Rescue %) 1 μM ([2]; FADD−/− Jurkat cells) [%]	Necroptosis inhibition assay (Rescue %) 10 μM ([2]; FADD−/− Jurkat cells) [%]
38.65	53.35	18	Nc1ncc(-c2ccc(N3CCN(CCOCCOCCNC(=O)CNc4ccc5c(c4)C(=O)N(C4CCC(=O)NC4=O)C5=O)CC3)nc2)nc1C(=O)OC(C(=O)Nc1ccc(F)cc1)c1ccccc1 (stereo not shown) [TDH-260, 2-((4-fluorophenyl)amino)-2-oxo-1-phenylethyl 3-amino-6-(6-(4-(2-(2-(2-(2-((2-(2,6-dioxopiperidin-3-yl)-1,3-dioxoisoindolin-5-yl)amino)acetamido)ethoxy)ethoxy)ethyl)piperazin-1-yl)pyridin-3-yl)pyrazine-2-carboxylate]	14.46	13.52		
69.07	58.46	1.8	Nc1ncc(-c2cnn(C3CCN(CC4CCN(C(=O)CCc5ccc6c(c5)C(=O)N(C5CCC(=O)NC5=O)C6=O)CC4)CC3)c2)nc1C(=O)O[C@@H](C(=O)Nc1ccc(F)cc1)c1ccccc1 (stereo partly drawn) [TDH-328, (R)-2-((4-fluorophenyl)amino)-2-oxo-1-phenylethyl 3-amino-6-(1-(1-((1-(3-(2-(2,6-dioxopiperidin-3-yl)-1,3-dioxoisoindolin-5-yl)propanoyl)piperidin-4-yl)methyl)piperidin-4-yl)-1H-pyrazol-4-yl)pyrazine-2-carboxylate]	52.22	31.65		
50.93	42.16	5.4	Nc1ncc(-c2cnn(C3CCN(C[C@H]4CC[C@H](CNc5ccc6c(c5)C(=O)N(C5CCC(=O)NC5=O)C6=O)CC4)CC3)c2)nc1C(=O)O[C@@H](C(=O)Nc1ccc(F)cc1)c1ccccc1 (stereo partly drawn) [TDH-352, (R)-2-((4-fluorophenyl)amino)-2-oxo-1-phenylethyl 3-amino-6-(1-(1-(((1r,4r)-4-(((2-(2,6-dioxopiperidin-3-yl)-1,3-dioxoisoindolin-5-yl)amino)methyl)cyclohexyl)methyl)piperidin-4-yl)-1H-pyrazol-4-yl)pyrazine-2-carboxylate]	11.36	5.3		
86.02	91.86	0.91	Nc1ncc(-c2cnn(C3CCN(C(=O)CCC4CCN(C(=O)CCc5cccc6c5CN(C5CCC(=O)NC5=O)C6=O)CC4)CC3)c2)nc1C(=O)O[C@@H](C(=O)Nc1ccc(F)cc1)c1ccccc1 (stereo partly drawn) [TDH-439, (R)-2-((4-fluorophenyl)amino)-2-oxo-1-phenylethyl 3-amino-6-(1-(1-(3-(1-(3-(2-(2,6-dioxopiperidin-3-yl)-1-oxoisoindolin-4-yl)propanoyl)piperidin-4-yl)propanoyl)piperidin-4-yl)-1H-pyrazol-4-yl)pyrazine-2-carboxylate]			41.96	43.64
69.45	82.68	0.5	Nc1ncc(-c2cnn(C3CCN(C4CC5(CCN(CC6CCN(C(=O)c7cccc(C(=O)NC8CCC(=O)NC8=O)c7)CC6)CC5)C4)CC3)c2)nc1C(=O)O[C@@H](C(=O)Nc1ccc(F)cc1)c1ccccc1 (stereo partly drawn) [TDH-544, (R)-2-((4-fluorophenyl)amino)-2-oxo-1-phenylethyl 3-amino-6-(1-(1-(7-((1-(3-((2,6-dioxopiperidin-3-yl)carbamoyl)benzoyl)piperidin-4-yl)methyl)-7-azaspiro[3.5]nonan-2-yl)piperidin-4-yl)-1H-pyrazol-4-yl)pyrazine-2-carboxylate]			35.33	31.42
81.34	85.73	1.3	Nc1ncc(-c2cnn(C3CCN(CCCN4CCN(C(=O)Cc5cccc(NC6=CC(=O)N(C7CCC(=O)NC7=O)C6=O)c5)CC4)CC3)c2)nc1C(=O)O[C@@H](C(=O)Nc1ccc(F)cc1)c1ccccc1 (stereo partly drawn) [TDH-495, (R)-2-((4-fluorophenyl)amino)-2-oxo-1-phenylethyl 3-amino-6-(1-(1-(3-(4-(2-(3-((1-(2,6-dioxopiperidin-3-yl)-2,5-dioxo-2,5-dihydro-1H-pyrrol-3-yl)amino)phenyl)acetyl)piperazin-1-yl)propyl)piperidin-4-yl)-1H-pyrazol-4-yl)pyrazine-2-carboxylate]			42.19	17.62
78.62	75.61	3.6	Nc1ncc(-c2cnn(C3CCN(C(=O)C4CCN(C(=O)CNc5ccc6c(c5)C(=O)N(C5CCC(=O)NC5=O)C6=O)CC4)CC3)c2)nc1C(=O)OC(C(=O)Nc1ccc(F)cc1)c1ccccc1 (stereo not shown) [TDH-276, 2-((4-fluorophenyl)amino)-2-oxo-1-phenylethyl 3-amino-6-(1-(1-(1-((2-(2,6-dioxopiperidin-3-yl)-1,3-dioxoisoindolin-5-yl)glycyl)piperidine-4-carbonyl)piperidin-4-yl)-1H-pyrazol-4-yl)pyrazine-2-carboxylate]	75.36	70.49		
64.63	75.28	1.4	Nc1ncc(-c2cnn(C3CCN(C(=O)C4CCN(C(=O)COc5ccc6c(c5)C(=O)N(C5CCC(=O)NC5=O)C6=O)CC4)CC3)c2)nc1C(=O)OC(C(=O)Nc1ccc(F)cc1)c1ccccc1 (stereo not shown) [TDH-278, 2-((4-fluorophenyl)amino)-2-oxo-1-phenylethyl 3-amino-6-(1-(1-(1-(2-((2-(2,6-dioxopiperidin-3-yl)-1,3-dioxoisoindolin-5-yl)oxy)acetyl)piperidine-4-carbonyl)piperidin-4-yl)-1H-pyrazol-4-yl)pyrazine-2-carboxylate]	63.64	39.23		
64	85.29	4.5	Nc1ncc(-c2cnn(C3CCN(CCOCCOCCOCCNC(=O)CNc4cccc5c4C(=O)N(C4CCC(=O)NC4=O)C5=O)CC3)c2)nc1C(=O)O[C@@H](C(=O)Nc1ccc(F)cc1)c1ccccc1 (stereo partly drawn) [TDH-143, (R)-2-((4-fluorophenyl)amino)-2-oxo-1-phenylethyl 3-amino-6-(1-(1-(1-((2-(2,6-dioxopiperidin-3-yl)-1,3-dioxoisoindolin-4-yl)amino)-2-oxo-6,9,12-trioxa-3-azatetradecan-14-yl)piperidin-4-yl)-1H-pyrazol-4-yl)pyrazine-2-carboxylate]	20.58	64.35		
93.71	92.68	3.7	Nc1ncc(-c2cnn(C3CCN(C[C@H]4CC[C@H](CNC(=O)C5CCN(c6cccc7c6C(=O)N(C6CCC(=O)NC6=O)C7=O)CC5)CC4)CC3)c2)nc1C(=O)O[C@@H](C(=O)Nc1ccc(F)cc1)c1ccccc1 (stereo partly drawn) [TDH-349, (R)-2-((4-fluorophenyl)amino)-2-oxo-1-phenylethyl 3-amino-6-(1-(1-(((1r,4r)-4-((1-(2-(2,6-dioxopiperidin-3-yl)-1,3-dioxoisoindolin-4-yl)piperidine-4-carboxamido)methyl)cyclohexyl)methyl)piperidin-4-yl)-1H-pyrazol-4-yl)pyrazine-2-carboxylate]	45.54	42.11		
50.37	48.83	4.6	Nc1ncc(-c2cnn(C3CCN(CC4CCN(C(=O)CNc5cccc6c5C(=O)N(C5CCC(=O)NC5=O)C6=O)CC4)CC3)c2)nc1C(=O)O[C@@H](C(=O)Nc1ccc(F)cc1)c1ccccc1 (stereo partly drawn) [TDH-136, (R)-2-((4-fluorophenyl)amino)-2-oxo-1-phenylethyl 3-amino-6-(1-(1-((1-((2-(2,6-dioxopiperidin-3-yl)-1,3-dioxoisoindolin-4-yl)glycyl)piperidin-4-yl)methyl)piperidin-4-yl)-1H-pyrazol-4-yl)pyrazine-2-carboxylate]	48.59	40.66		
